Laboratory results as given in patent US20260262643A1, “HERBICIDAL BENZOXAZINES” (FMC CORPORATION, priority 2022, published 2026).

Assays:
wheat [1] = assay: Test C postemergence; type: in vivo, Triticum aestivum; settings: Postemergence, 125 g ai/ha; 0 to 100 scale (0 no effect, 100 complete control), 10 days
Method in brief: (§1)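 Test material, in non-phytotoxic solvent with surfactant, was sprayed on the soil directly after seeding (preemergence) or on young plants of 2–10 cm with one to two leaves (postemergence). Greenhouse, 10 days; 0–100 visual control scale.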

barnyardgrass [2] = assay: Test D flooded paddy test; type: in vivo, Echinochloa crus-galli; settings: 250 g ai/ha, applied to paddy water, visual rating after 13 to 14 days, scale 0 to 100 (0 no effect, 100 complete control)
Method in brief: (§2)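 Compounds go straight into paddy water over 2-leaf plants in pots flooded to 3 cm. Greenhouse holding lasts 13 to 14 days. Injury is scored by eye against controls from 0 (none) to 100 (complete control).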

soybean [3] = assay: Test C postemergence; type: in vivo, Glycine max; settings: Postemergence, 125 g ai/ha; 0 to 100 scale (0 no effect, 100 complete control), 10 days
Method in brief: as §1

barnyardgrass [4] = assay: Test C preemergence; type: in vivo, Echinochloa crusgalli; settings: for Barnyardgrass plant response rating: 500 g ai/ha, preemergence, 0 to 100 scale (0 no effect, 100 complete control); for Plant response rating, Barnyardgrass: Preemergence, 125 g ai/ha, 0 to 100 scale, 0 no effect, 100 complete control
Method in brief: as §1

blackgrass [5] = assay: Test C preemergence; type: in vivo, Alopecurus myosuroides; settings: for Blackgrass plant response rating: 500 g ai/ha, preemergence, 0 to 100 scale (0 no effect, 100 complete control); for Plant response rating, Blackgrass: Preemergence, 125 g ai/ha, 0 to 100 scale, 0 no effect, 100 complete control
Method in brief: as §1

corn [6] = assay: Test C postemergence; type: in vivo, Zea mays; settings: 10 days, 0 to 100 scale (0 no effect, 100 complete control)
Method in brief: as §1

barnyardgrass [7] = assay: Test C postemergence; type: in vivo, Echinochloa crusgalli; settings: 10 days, 0 to 100 scale (0 no effect, 100 complete control)
Method in brief: as §1

green foxtail [8] = assay: Test C postemergence; type: in vivo, Setaria viridis; settings: 10 days, 0 to 100 scale (0 no effect, 100 complete control)
Method in brief: as §1

sedge, umbrella = assay: Test D flooded paddy test; type: in vivo, Cyperus difformis; settings: 250 g ai/ha, applied to paddy water, visual rating after 13 to 14 days, scale 0 to 100 (0 no effect, 100 complete control)
Method in brief: as §2

kochia [9] = assay: Test C postemergence; type: in vivo, Bassia scoparia; settings: 10 days, 0 to 100 scale (0 no effect, 100 complete control)
Method in brief: as §1

blackgrass [10] = assay: Test C postemergence; type: in vivo, Alopecurus myosuroides; settings: 10 days, 0 to 100 scale (0 no effect, 100 complete control)
Method in brief: as §1

oat, wild [11] = assay: Test C preemergence; type: in vivo, Avena fatua; settings: for Oat, Wild plant response rating: 500 g ai/ha, preemergence, 0 to 100 scale (0 no effect, 100 complete control); for Plant response rating, Oat, Wild: Preemergence, 125 g ai/ha, 0 to 100 scale, 0 no effect, 100 complete control
Method in brief: as §1

kochia [12] = assay: Test C preemergence; type: in vivo, Bassia scoparia; settings: for Kochia plant response rating: 500 g ai/ha, preemergence, 0 to 100 scale (0 no effect, 100 complete control); for Plant response rating, Kochia: Preemergence, 125 g ai/ha, 0 to 100 scale, 0 no effect, 100 complete control
Method in brief: as §1

ryegrass, Italian [13] = assay: Test C postemergence; type: in vivo, Lolium multiflorum; settings: Postemergence, 125 g ai/ha; 0 to 100 scale (0 no effect, 100 complete control), 10 days
Method in brief: as §1

soybean [14] = assay: Test C preemergence; type: in vivo, Glycine max; settings: for Soybean plant response rating: 500 g ai/ha, preemergence, 0 to 100 scale (0 no effect, 100 complete control); for Plant response rating, Soybean: Preemergence, 125 g ai/ha, 0 to 100 scale, 0 no effect, 100 complete control
Method in brief: as §1

green foxtail [15] = assay: Test C preemergence; type: in vivo, Setaria viridis; settings: for Foxtail, Green plant response rating: 500 g ai/ha, preemergence, 0 to 100 scale (0 no effect, 100 complete control); for Plant response rating, Foxtail, Green: Preemergence, 125 g ai/ha, 0 to 100 scale, 0 no effect, 100 complete control
Method in brief: as §1

pigweed, palmer [16] = assay: Test C postemergence; type: in vivo, Amaranthus palmeri; settings: 10 days, 0 to 100 scale (0 no effect, 100 complete control)
Method in brief: as §1

ragweed [17] = assay: Test C postemergence; type: in vivo, Ambrosia artemisiifolia; settings: Postemergence, 125 g ai/ha; 0 to 100 scale (0 no effect, 100 complete control), 10 days
Method in brief: as §1

wheat [18] = assay: Test C preemergence; type: in vivo, Triticum aestivum; settings: for Wheat plant response rating: 500 g ai/ha, preemergence, 0 to 100 scale (0 no effect, 100 complete control); for Plant response rating, Wheat: Preemergence, 125 g ai/ha, 0 to 100 scale, 0 no effect, 100 complete control
Method in brief: as §1

horseweed = assay: Test C postemergence; type: in vivo, Erigeron canadensis; settings: 10 days, 0 to 100 scale (0 no effect, 100 complete control)
Method in brief: as §1

ryegrass, Italian [19] = assay: Test C preemergence; type: in vivo, Lolium multiflorum; settings: for Ryegrass, Italian plant response rating: 500 g ai/ha, preemergence, 0 to 100 scale (0 no effect, 100 complete control); for Plant response rating, Ryegrass, Italian: Preemergence, 125 g ai/ha, 0 to 100 scale, 0 no effect, 100 complete control
Method in brief: as §1

ducksalad = assay: Test D flooded paddy test; type: in vivo, Heteranthera limosa; settings: 250 g ai/ha, applied to paddy water, visual rating after 13 to 14 days, scale 0 to 100 (0 no effect, 100 complete control)
Method in brief: as §2

ragweed [20] = assay: Test C preemergence; type: in vivo, Ambrosia artemisiifolia; settings: for Ragweed plant response rating: 500 g ai/ha, preemergence, 0 to 100 scale (0 no effect, 100 complete control); for Plant response rating, Ragweed: Preemergence, 125 g ai/ha, 0 to 100 scale, 0 no effect, 100 complete control
Method in brief: as §1

pigweed, palmer [21] = assay: Test C preemergence; type: in vivo, Amaranthus palmeri; settings: for Pigweed, Palmer plant response rating: 500 g ai/ha, preemergence, 0 to 100 scale (0 no effect, 100 complete control); for Plant response rating, Pigweed, Palmer: Preemergence, 125 g ai/ha, 0 to 100 scale, 0 no effect, 100 complete control
Method in brief: as §1

corn [22] = assay: Test C preemergence; type: in vivo, Zea mays; settings: for Corn plant response rating: 500 g ai/ha, preemergence, 0 to 100 scale (0 no effect, 100 complete control); for Plant response rating, Corn: Preemergence, 125 g ai/ha, 0 to 100 scale, 0 no effect, 100 complete control
Method in brief: as §1

rice = assay: Test D flooded paddy test; type: in vivo, Oryza sativa; settings: 250 g ai/ha, applied to paddy water, visual rating after 13 to 14 days, scale 0 to 100 (0 no effect, 100 complete control)
Method in brief: as §2

oat, wild [23] = assay: Test C postemergence; type: in vivo, Avena fatua; settings: 10 days, 0 to 100 scale (0 no effect, 100 complete control)
Method in brief: as §1

Cc1ccc(-n2cnc(C(C)(C)C#N)n2)cc1C(=O)N1C[C@H](C)Oc2c(Cl)cccc21 [Compound 397]
45: Plant response rating, Sedge, Umbrella (Flood) (sedge, umbrella)
70: Plant response rating, Blackgrass (blackgrass [5]) | Plant response rating, Corn (corn [6]; 500 g ai/ha, postemergence) | Plant response rating, Corn (corn [6]; Postemergence, 125 g ai/ha) | Plant response rating, Soybean (soybean [14]) | Plant response rating, Oat, Wild (oat, wild [23]; 500 g ai/ha, postemergence)
20: Plant response rating, Wheat (wheat [1]) | Corn plant response rating (corn [22]) | Plant response rating, Oat, Wild (oat, wild [23]; Postemergence, 125 g ai/ha)
100: Barnyardgrass plant response rating (barnyardgrass [4]) | Plant response rating, Kochia (kochia [9]; 500 g ai/ha, postemergence) | Kochia plant response rating (kochia [12]) | Soybean plant response rating (soybean [14]) | Foxtail, Green plant response rating (green foxtail [15]) | Plant response rating, Foxtail, Green (green foxtail [15]) | Plant response rating, Pigweed, Palmer (pigweed, palmer [16]; 500 g ai/ha, postemergence) | Plant response rating, Pigweed, Palmer (pigweed, palmer [16]; Postemergence, 125 g ai/ha) | Plant response rating, Ragweed (ragweed [17]) | Pigweed, Palmer plant response rating (pigweed, palmer [21]) | Plant response rating, Pigweed, Palmer (pigweed, palmer [21])
30: Wheat plant response rating (wheat [18])
50: Plant response rating, Barnyardgrass (Flood) (barnyardgrass [2]) | Plant response rating, Soybean (soybean [3]) | Plant response rating, Ryegrass, Italian (ryegrass, Italian [13]) | Plant response rating, Ragweed (ragweed [20])
90: Plant response rating, Barnyardgrass (barnyardgrass [4]) | Blackgrass plant response rating (blackgrass [5]) | Plant response rating, Foxtail, Green (green foxtail [8]; 500 g ai/ha, postemergence) | Plant response rating, Foxtail, Green (green foxtail [8]; Postemergence, 125 g ai/ha) | Plant response rating, Kochia (kochia [9]; Postemergence, 125 g ai/ha) | Plant response rating, Blackgrass (blackgrass [10]; 500 g ai/ha, postemergence) | Oat, Wild plant response rating (oat, wild [11]) | Plant response rating, Kochia (kochia [12]) | Ryegrass, Italian plant response rating (ryegrass, Italian [19])
15: Plant response rating, Rice (Flood) (rice)
80: Plant response rating, Blackgrass (blackgrass [10]; Postemergence, 125 g ai/ha) | Plant response rating, Horseweed (horseweed; 500 g ai/ha, postemergence) | Plant response rating, Ryegrass, Italian (ryegrass, Italian [19]) | Ragweed plant response rating (ragweed [20])
40: Plant response rating, Barnyardgrass (barnyardgrass [7]; Postemergence, 125 g ai/ha) | Plant response rating, Horseweed (horseweed; Postemergence, 125 g ai/ha)
10: Plant response rating, Wheat (wheat [18]) | Plant response rating, Ducksalad (Flood) (ducksalad) | Plant response rating, Corn (corn [22])
60: Plant response rating, Barnyardgrass (barnyardgrass [7]; 500 g ai/ha, postemergence) | Plant response rating, Oat, Wild (oat, wild [11])

CCOC[C@H]1CN(C(=O)c2cc(-n3cnc(C4CCC4)n3)cc3c2OCO3)c2cccc(Cl)c2O1 [Compound 399]
80: Ragweed plant response rating (ragweed [20])
40: Plant response rating, Foxtail, Green (green foxtail [8]; 500 g ai/ha, postemergence)
10: Plant response rating, Barnyardgrass (barnyardgrass [4]) | Plant response rating, Corn (corn [6]; 500 g ai/ha, postemergence) | Plant response rating, Foxtail, Green (green foxtail [8]; Postemergence, 125 g ai/ha) | Wheat plant response rating (wheat [18])
90: Plant response rating, Kochia (kochia [9]; 500 g ai/ha, postemergence) | Plant response rating, Kochia (kochia [9]; Postemergence, 125 g ai/ha)
30: Plant response rating, Barnyardgrass (barnyardgrass [7]; 500 g ai/ha, postemergence) | Oat, Wild plant response rating (oat, wild [11]) | Plant response rating, Ragweed (ragweed [20])
0: Plant response rating, Barnyardgrass (Flood) (barnyardgrass [2]) | Plant response rating, Soybean (soybean [3]) | Blackgrass plant response rating (blackgrass [5]) | Plant response rating, Blackgrass (blackgrass [5]) | Plant response rating, Corn (corn [6]; Postemergence, 125 g ai/ha) | Plant response rating, Sedge, Umbrella (Flood) (sedge, umbrella) | Plant response rating, Blackgrass (blackgrass [10]; Postemergence, 125 g ai/ha) | Plant response rating, Oat, Wild (oat, wild [11]) | Plant response rating, Kochia (kochia [12]) | Plant response rating, Ryegrass, Italian (ryegrass, Italian [13]) | Plant response rating, Soybean (soybean [14]) | Plant response rating, Wheat (wheat [18]) | Plant response rating, Ducksalad (Flood) (ducksalad) | Corn plant response rating (corn [22]) | Plant response rating, Corn (corn [22]) | Plant response rating, Rice (Flood) (rice) | Plant response rating, Oat, Wild (oat, wild [23]; 500 g ai/ha, postemergence) | Plant response rating, Oat, Wild (oat, wild [23]; Postemergence, 125 g ai/ha)
100: Foxtail, Green plant response rating (green foxtail [15]) | Plant response rating, Pigweed, Palmer (pigweed, palmer [16]; 500 g ai/ha, postemergence) | Plant response rating, Pigweed, Palmer (pigweed, palmer [16]; Postemergence, 125 g ai/ha) | Pigweed, Palmer plant response rating (pigweed, palmer [21]) | Plant response rating, Pigweed, Palmer (pigweed, palmer [21])
50: Plant response rating, Horseweed (horseweed; Postemergence, 125 g ai/ha) | Plant response rating, Ryegrass, Italian (ryegrass, Italian [19])
70: Barnyardgrass plant response rating (barnyardgrass [4]) | Kochia plant response rating (kochia [12]) | Plant response rating, Ragweed (ragweed [17]) | Plant response rating, Horseweed (horseweed; 500 g ai/ha, postemergence) | Ryegrass, Italian plant response rating (ryegrass, Italian [19])
20: Plant response rating, Wheat (wheat [1]) | Plant response rating, Barnyardgrass (barnyardgrass [7]; Postemergence, 125 g ai/ha) | Plant response rating, Blackgrass (blackgrass [10]; 500 g ai/ha, postemergence) | Soybean plant response rating (soybean [14]) | Plant response rating, Foxtail, Green (green foxtail [15])
